According to patent publication EP0574185B1, “PGE1 analogs” (NEWPHARMA INTERNATIONAL CORPORATION, priority 1992, dated 1993):

Tests used:
Swiss male mice = assay: Motor activity in mice (rota-rod); details: 100 µg/kg, i.p., 15 min prior to the test; vehicle 0/10
Swiss female mice = assay: Barbiturate sleeping time in mice; type: in vivo; details: 100 µg/kg,ip, 15 min before pentobarbital sodium 30 mg/kg i.p., n= 12
Procedure: The effect of B-407 on the time of induction and time of duration of the barbiturate sleeping time was evaluated by determining the time of loss and recovery of the righting reflex. This was carried out in Swiss female mice weighing 20 g to 25 g.
Two groups of 12 mice each were used. One group was treated with B-407 (100 µg/kg, i.p.). Fifteen minutes later, pentobarbital sodium (30 mg/kg, i.p.) was administered. The time of onset (the loss of the righting reflex) and of duration (the elapsed time from the loss of the righting reflex up to its recovery from the barbiturate-induced sleeping) were determined. Full recovery of the righting reflex was assumed when the animal, placed on its back, could recover its normal position at least 3 times during one minute. The control mice group followed the same protocol, but received saline solution instead B-407. The results were expressed as the average ± standard error of each group and the statistical significance of the differences were evaluated by means of the Student's-t-test.

[1] = system: isolated rat uterus under diestrous condition; assay: B1: effect on isolated uterus of diestrous rat with basal spontaneous contractions (cumulative curves, Krebs solution); parameters: species or system Wistar rats; details: basal 5,85
Procedure: (§1) (B1)- Concentration-response curves on isolated rat uterus under diestrous condition were carried out. Wistar rats weighing 250 g to 300 g were employed. The diestrous phase was detected by a daily vaginal smear. The uterus was dissected out and a portion of a horn was placed in a 10 ml organ bath in a similar way to that described in part A. The bath temperature was maintained at 37°C, bubbled with a mixture of 95 % O2 and 5 % CO2 in a Krebs nutrient solution. The organ was left to stabilize for one hour. The isolated uterus presented basal spontaneous contractions under these experimental conditions. Cumulative concentration-response curves were carried out with the addition of either 100 µl or 300 µl of solutions of either natural prostaglandins or B-407 in concentrations of 10^-10 M to 10^-6 M, each 15 minutes without any washing. Uterine contractions and quantitation were performed as described in (A). (B2)- Concentration-response curves in isolated uterus under diestrous (without any spontaneous contractions) were carried out. Sodium diclofenac was added to De Jalon nutrient solution to a final concentration of 4x10^-6 M. The organ was left to stabilize until the absence of spontaneous contractions. Non-cumulative concentration-response curves were obtained. Recordings of the contractions and their quantitation were performed as described in (A).
(§2) The frequency and magnitude of the responses were globally evaluated by calculating the total area recorded at a fixed time period as will be further explained. The areas under the curve of the recording paper, over 15 minutes periods, were cut and weighed both in the concentration-response curves and in the potentiating experiments.
(§3) The calibration was made by weighing a piece of paper which corresponded to a tension of 1 g at the working sensitivity along 2 minutes. Therefore, a relationship of area expressed in g/2 min was obtained and then the weights of the areas of the responses were transformed to unities of area. The results were expressed as the mean ± the standard error of the areas obtained. The statistical evaluation of the differences was carried out either by ANOVA or by Student's-t-test, as appropriate.

Swiss mice = assay: Exploratory activity in mice (open field); type: in vivo; details: i.p., control 88 ± 8, n=10
Procedure: The effect of B-407 on the exploratory activity was evaluated in Swiss mice of 30 g to 40 g in an open-field of 40 cm x 40 cm x 25 cm divided in 9 quadrants. One mouse at a time was placed into the open field to assess its exploratory activity by counting the number of quadrants crossed in 4 consecutive periods of 3 minutes each.
The working protocol consisted of two experiments with 3 groups of 10 animals each. In both experiments, each group of mice were pretreated with B-407, 0 µg/kg, 30 µg/kg and 100 µg/kg five min prior to the test. In one experiment, the animals were treated, p.o., with a combination of the antispasmodics homatropine methylbromide (5 mg/kg) and papaverine (5 mg/kg) administered 10 min prior to B-407. In the other experiment, this treatment was replaced by saline solution. The two experiments were carried out at the same time.
The results were expressed as the average ± standard error of each group and the statistical significance of the differences were evaluated by means of the Student's-t-test.

guinea pigs = assay: Histamine-aerosol induced bronchoconstriction in guinea pig; type: in vivo; details: 150 µg/kg, i.p., 5 minutes before histamine challenge; n= 8; initial 115 ± 6, final 127 ± 4
Procedure: The protective effect of B-407 on the bronchoconstriction induced by histamine aerosol in male guinea pigs weighing 700 g was evaluated. One guinea pig at a time was placed into a 15 l hermetically closed container. Then 200 µl of histamine solution (600 µg of histamine base) was sprayed with compressed air at a pressure of 1 PSI. The time at which the hypoxic symptoms (increase of breathing frequency, bronchospasm, dysnea, apnea and finally the collapse of the animal (falling down) was determined.
The working protocol comprised 3 parts: • 1) The determination of the falling down time of the guinea pigs exposed to the histamine aerosol was determined.
The results were expressed as the time in seconds elapsed before the animals fell down ["Antihistamine Agents" (Cap. 22) in: "Screening Methods in Pharmacology". Academic Press, New York (1965). Brit. J. Pharmacology. 16, 59 (1961); Arch. Intern. Pharmacodyn. 129, 77 (1960); J. Pharmacol. Exptl. Therap. 131, 73 (1961); Arch. Intern. Pharmacodyn. 115, 332 (1958); "Les Antihistaminiques de Synthése", Chapter 22, page 784 in : "Structure et activité pharmacodynamique de medicaments du systéme nerveux vegetatif". S. Karger Bale (Suisse)- New York: (1948)].

[2] = system: isolated uterus under diestrous (without any spontaneous contractions); assay: B2: effect on isolated uterus of diestrous rat without spontaneous contractions (De Jalon solution with sodium diclofenac, non-cumulative curves); parameters: species or system Wistar rats; details: for Area (g of tension/2 min): B2, basal 1,96
Procedure: as §1, §2, §3

Compound: CCCCC(C)(O)C/C=C/[C@H]1[C@H](O)CC(=O)[C@@H]1CCCC/C=C/C(=O)OC (mixture of isomers) [B-407, trans-Δ^2-15-deoxy-16-hydroxy-16-methyl PGE1 methyl ester]
- Fraction (animals fallen before 300 sec/total number of animals) (Swiss male mice): 1/10
- Induction time (Swiss female mice; control 4,52 ± 0,22, p < 0,02): 3,75 ± 0,19 min
- Sleeping time (Swiss female mice; control 27,8 ± 3,10, n.s.): 29,7 ± 2,91 min
- Area (g of tension/2 min) ([1]; 1x10^-6 M): 6,46 g of tension/2 min
- Area (g of tension/2 min) ([1]; 1x10^-7 M): 7,38 g of tension/2 min
- Area (g of tension/2 min) ([1]; 1x10^-8 M): 6,88 g of tension/2 min
- Area (g of tension/2 min) ([1]; 1x10^-9 M): 6,14 g of tension/2 min
- N° Quadrants/12 min (Swiss mice; 30 µg/kg): 87 ± 8
- N° Quadrants/12 min (Swiss mice; 100 µg/kg, p < 0,05): 48 ± 8
- Falling down time (sec) by bronchospasm (guinea pigs): 358 ± 4 s
- maximum response of the uterotonic effect relative to the basal one ([2]; B2, with diclofenac): duplicates the basal one
- Area (g of tension/2 min) ([2]; 1x10^-6 M): 4,24 g of tension/2 min
- Area (g of tension/2 min) ([2]; 1x10^-7 M): 3,73 g of tension/2 min
- Area (g of tension/2 min) ([2]; 1x10^-8 M): 2,10 g of tension/2 min
- Area (g of tension/2 min) ([2]; 1x10^-9 M): 1,91 g of tension/2 min
